Assay: gradient 5% acetonitrile 3 min, to 50% in 2 min, to 85% in 15 min, held 3 min, 100 µL/min
Details: column: Zorbax Extend-C18 2.1 x 50 mm; eluents: water / acetonitrile, 0.1% formic acid
Summary of the method: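 Using water and acetonitrile that each contained 0.1% formic acid, mixtures of ~100 pure standards were separated at 100 μL/min on a Zorbax Extend-C18 column (2.1 × 50 mm, 1.8 μm). The HPLC fed a quadrupole time-of-flight mass spectrometer working in positive and negative ionization mode, with dead and dwell volumes of 40 μL and 900 μL. Data were acquired over 3 months. Retention time was read from computationally picked adduct peaks after manual inspection of each.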

Row | RP-LC retention time | Structure (SMILES)
1 | 807 s | O=C(C1CCCN(S(=O)(=O)N2CCOCC2)C1)N1CCN(c2ccc(F)cc2)CC1 (stereo not given)
2 | 817 s | Cc1ccc(NC(=O)N2C[C@@H](F)C[C@H]2C(=O)N2CCc3ccccc3C2)cc1C
3 | 566 s | Cc1nc2ccccn2c(=O)c1NC(=O)Nc1cccs1
4 | 733 s | Cc1nn(-c2ccc(-c3ccccc3)nn2)c(C)c1S(=O)(=O)N1CCN(C2CCCCC2)CC1
5 | 887 s | CCC(CC)C(=O)N1CCN(c2ccc(=O)n(-c3ccc(Cl)cc3)n2)CC1
6 | 708 s | CCC(=O)Nc1ccc2c(c1)CN(C(=O)CCc1ccccc1)C(C(=O)N1CCCC1)C2 (stereo not given)
7 | 828 s | O=C(O)c1ccc(Nc2nc(-c3ccc(Cl)cc3Cl)nc3ccccc23)cc1
8 | 844 s | O=C(c1cc(F)ccc1F)N1CCCC2(C1)NC(=O)N(Cc1ccc(Cl)cc1)C2=O (stereo not given)
9 | 610 s | CS(=O)(=O)N(Cc1ccncc1)C1CN(C(=O)C2(c3ccccc3)CC2)C1
10 | 767 s | CCCC(NC(=O)CCc1c(-c2ccc(Cl)cc2)nc2ccccn12)c1cccs1 (stereo not given)
11 | 566 s | CCCN1CCN(C(=O)c2nc(N3CCCCC3)c3c(C)cc(C)nc3n2)CC1
12 | 628 s | CCN1CCCn2nc(C3CCN(C(=O)c4ccc5c(c4)OCO5)CC3)cc2C1=O
13 | 803 s | CN1C(=O)C2(CCN(C(=O)CCc3ccccc3)C2)c2ccccc21 (stereo not given)
14 | 565 s | O=C(Cn1c(CO)nc2ccccc21)N1CCCC1
15 | 574 s | CCC(CC)N1CCN(C(=O)c2nc(N3CCSCC3)c3cn(C)nc3n2)CC1
16 | 652 s | COc1ccccc1-c1nc(C2CCN(C(=O)c3cccc4[nH]ccc34)CC2)no1

Row | RP-LC retention time | Structure (SMILES)
17 | 718 s | O=C(c1cn2ccccc2n1)N1CCN(c2cccc(Cl)c2)CC1
18 | 1020 s | Cc1cc(C)n(C(=O)c2cn(-c3ccc(S(=O)(=O)N4CCCC(C)C4)cn3)cn2)n1 (stereo not given)
19 | 579 s | O=C(NCc1ccncc1)C1CCCN(c2ncnc3c2oc2ccccc23)C1 (stereo not given)
20 | 750 s | Clc1cccc(CN2CCN(c3cnn4c(C5CC5)nnc4c3)CC2)c1
21 | 650 s | O=C(NC1CC1)c1ccccc1OCC1CCCN(Cc2cc3ccccc3nc2Cl)C1 (stereo not given)
22 | 1000 s | Cn1cccc1-c1noc(C2CCN(S(=O)(=O)c3ccc4c(c3)OCCO4)CC2)n1
23 | 749 s | O=C(NC1CCN(c2cc(-c3cccs3)[nH]n2)CC1)c1ccc(Cl)cc1
24 | 885 s | O=c1n(Cc2c(F)cccc2Cl)nc2ccc(S(=O)(=O)N3CCCC3)cn12
25 | 950 s | CC1(C(=O)NC2CCCC2)CN(S(=O)(=O)c2ccccc2)CC(=O)N1c1ccc(Cl)cc1 (stereo not given)
26 | 708 s | COc1cccc(NC(=O)C2CCN(c3cc(N4CCCCC4)ncn3)CC2)c1
27 | 919 s | COc1ccc(-c2c(C(=O)Nc3ccc4c(c3)OCCO4)nc3ccccn23)cc1
28 | 614 s | Cn1cnc(S(=O)(=O)N2CCC(Cc3nncn3Cc3ccccc3)C2)c1 (stereo not given)
29 | 836 s | O=C(C(=O)N1CCc2ccccc2C1)c1c[nH]c2ccccc12
30 | 786 s | O=C(Cn1ccc2c(SCc3ccccc3)nccc21)N1CCN(c2ccc(F)cc2)CC1
31 | 722 s | O=C(c1ccc(S(=O)(=O)c2cccc(Cl)c2)c([N+](=O)[O-])c1)N1CCN(c2ccccn2)CC1
32 | 715 s | C[C@H]1CN(C(=O)NCc2ccccc2)C[C@@H]1c1nc(-c2ccncc2)no1

Second part, the compound before the results:

Row | Structure (SMILES) | RP-LC retention time
33 | CCOc1cc(=O)n2c(c1C(=O)NC(C)C)CCCCC2 | 623 s
34 | CC(C)(C)C(=O)NC1CCN(C(=O)c2ccc(F)cc2)C1 (stereo not given) | 688 s
35 | CCOC(=O)c1c(S(=O)(=O)N2CCC(C(=O)N3CCCC3)CC2)c(C)n(C)c1C | 706 s
36 | CCOC(=O)c1c(C)[nH]c(C(=O)N2CCCC(C(=O)NCCCc3ccccc3)C2)c1C (stereo not given) | 867 s
37 | COc1ccc(N2CC(c3noc(-c4ccc(F)cc4)n3)CC2=O)cc1 (stereo not given) | 926 s
38 | CCC1CCCCN1C(=O)c1cnc2nc(C)ccc2c1Nc1cc(C)cc(C)c1 (stereo not given) | 722 s
39 | COc1ccc(-c2noc(CN3C(=O)COc4ccccc43)n2)cc1 | 953 s
40 | COc1ccc(Cl)cc1NC(=O)N(C)CCc1noc(COc2ccccc2F)n1 | 979 s
41 | Cc1ccc(-c2nocc2CCC(=O)NCc2ccc3c(c2)OCO3)cc1 | 816 s
42 | Cc1c(C)n(C)c2ccc(C(N)=O)cc12 | 704 s
43 | CC(C)(C)c1cc(C(=O)Nc2cc(F)cc(F)c2)nc2ccnn12 | 1360 s
44 | Cn1c(=O)c(SCC(=O)NCc2cccc(Br)c2)nc2cccnc21 | 806 s
45 | CC(C)S(=O)(=O)c1ccc(CC(=O)N(Cc2cccs2)Cc2cccn2C)cc1 | 877 s
46 | Cc1ccc(CNC(=O)C2CCN(c3nc4cccnc4s3)CC2)o1 | 704 s
47 | CNC(=O)c1cc(C)nc2ccc(C)cc12 | 561 s
48 | O=C(CCn1nnc2cc(-c3noc(-c4ccc(F)c(F)c4)n3)ccc21)N1CCCC1 | 946 s
49 | Cc1ccc(CCNC(=O)C2CCN(S(=O)(=O)c3ccc4c(c3)CCCC(=O)N4)CC2)cc1 | 781 s
50 | COc1ccccc1NS(=O)(=O)c1cn(C(C)C)c2ncccc12 | 886 s
51 | CCCCn1cc(S(=O)(=O)Nc2ccc(F)cc2Cl)c2cccnc21 | 862 s
52 | O=S(=O)(NCC1CCN(Cc2ccc(Cl)cc2)CC1)c1ccc2c(c1)-c1oncc1CO2 | 708 s

Row | Structure (SMILES) | RP-LC retention time
53 | CCCCN(C(=O)c1ccc(S(=O)(=O)N2CCOCC2)cc1)C1CCS(=O)(=O)C1 (stereo not given) | 687 s
54 | CCn1c(=O)n(CC(=O)NCCN2CCC(C)CC2)c(=O)c2cnc(-c3ccc(Cl)cc3)nc21 | 776 s
55 | Cn1c(-c2cccc(C(=O)NCc3cc(F)ccc3F)c2)nc2cccnc21 | 726 s
56 | O=C(NCCc1cccnc1)C1CN(S(=O)(=O)c2ccccc2)CC12CCCCC2 (stereo not given) | 664 s
57 | Cc1ccc(C)c(NC(=O)Cc2csc3nc(-c4ccc(C)c(C)c4)cn23)c1 | 896 s
58 | CCCn1cc(CCNS(=O)(=O)c2ccc(F)c(C)c2)c2cccnc21 | 893 s
59 | Cc1nc(C)c(C(=O)N2CCC(C3CCN(S(C)(=O)=O)CC3)C2)s1 (stereo not given) | 656 s
60 | CCCn1c(=O)sc2cc(S(=O)(=O)N3CCC(C(=O)Nc4ccc(Cl)cc4)CC3)ccc21 | 1040 s
61 | CCn1cc(Br)c(C(=O)Nc2ccc(F)c(Cl)c2)n1 | 1020 s
62 | COc1cccc(-c2noc(C3CCCN3C(=O)Nc3ccc(OC)c(F)c3)n2)c1 (stereo not given) | 946 s
63 | COC(=O)c1cc(S(=O)(=O)N2CCCC2C(=O)Nc2nc(C)cs2)cn1C (stereo not given) | 791 s
64 | Cc1[nH]c(=O)[nH]c(=O)c1S(=O)(=O)NC1CCCC1 | 620 s
65 | COC(=O)c1c(NCc2ccc(OC)cc2)c2cccc(Cl)c2[nH]c1=O | 788 s
66 | Cc1ccc(-c2ncccc2CNS(=O)(=O)c2cccc(F)c2)cc1 | 713 s
67 | CCn1c(=O)sc2cc(S(=O)(=O)N3CCC(C(=O)NC(C)C)CC3)ccc21 | 749 s
68 | CCNC(=O)N(C)Cc1ccc(C)s1 | 722 s
69 | COc1cccc(NC(=O)N2CCc3nc[nH]c3C2)c1 | 554 s
70 | CCOc1ccccc1NC(=O)Cn1cnc2nc(N3CCCC(C(=O)NC4CC4)C3)sc2c1=O (stereo not given) | 723 s
71 | Cc1ccc(-n2ncc3c(C)nn(CC(=O)Nc4cc(C)on4)c(=O)c32)c(C)c1 | 775 s
72 | Cc1cc(-n2nnc(C(=O)O)c2C)ccc1F | 705 s

Row | Structure (SMILES) | RP-LC retention time
73 | CC(C)(C)C(=O)NC1CCN(C(=O)C2CC2)C1 (stereo not given) | 623 s
74 | Cc1cc(C)cc(N2CCC(NC(=O)Cc3ccc(F)cc3)C2=O)c1 (stereo not given) | 864 s
75 | COc1ccc(N2C(=O)NC3CC2(C)Oc2ccc(OC)cc23)cc1 (stereo not given) | 765 s
76 | COc1ccc(C(=O)N2CCCC2c2nc(-c3ccc(OC)cc3)no2)cc1 (stereo not given) | 957 s
77 | Cc1ccc(C2NC(=O)N(CC(=O)Nc3ccc(Br)cc3F)C3=C2C(=O)OC3)cc1 (stereo not given) | 861 s
78 | COC(=O)c1ccc(NC(=O)C2CC(=O)N(CCc3c[nH]c4ccc(F)cc34)C2)cc1 (stereo not given) | 799 s
79 | CCCN1C(=O)c2cc(S(=O)(=O)NCc3ccc(C)o3)ccc2Oc2cccnc21 | 995 s
80 | CCOC(=O)c1csc(NC(=O)Cc2ccc(S(=O)(=O)CC)cc2)n1 | 681 s
81 | CCNC(=O)c1c2c(nc3ccc(F)cc13)CCC2 | 613 s
82 | COc1ccc(C(=O)N2CCC(c3cc(N)on3)CC2)c(OC)c1 | 658 s
83 | Cc1ccc(-n2c(N3CCCC(C(=O)NCc4ccncc4)C3)nc3ccsc3c2=O)cc1 (stereo not given) | 627 s
84 | COc1ccc(OC)c(NC(=O)C2c3ccccc3C(=O)N3CCc4cc(OC)c(OC)cc4C23)c1 (stereo not given) | 829 s
85 | CSc1nc(=O)[nH]nc1Sc1ccccc1 | 800 s
86 | Cc1ccc(-c2nc3nc(C)cc(N4CCCCC4C)n3n2)cc1 (stereo not given) | 1050 s
87 | COc1ccc(-c2nc(Cn3ccnc3C)no2)cc1 | 607 s
88 | CCOc1ccc(-c2nc(CN3CCN(C(=O)NC4CCCCC4)CC3)c(C)o2)cc1 | 718 s
89 | Cc1ccc2c(c1)N(S(C)(=O)=O)CCC(C(=O)NCCC1=CCCCC1)O2 (stereo not given) | 993 s
90 | O=C(CSc1nnc2sc3ccccc3n12)c1ccc(F)cc1 | 778 s

Reference: the METLIN SMRT retention time set (Domingo-Almenara et al. 2019)
